Results published in PubChem BioAssay AID1963871 (Molecular Pharmacology Branch, DTP, NCI, 2024).

System: KRAS-mutant PDC multicell tumor spheroid viability
Assay: Anticancer human tumor 521955-158-R2-J5-PDC patient-derived pancreatic carcinoma cell line growth inhibition [KRAS2]
Settings: for viability, T/C: stronger effect = lower value
Excerpt: Multicellular complex tumor spheroid response to RAS pathway inhibitors in combination with a targeted agents in patient-derived cell lines with oncogenic KRAS variants from multiple cancer types
A high-throughput screen of multi-cell type tumor spheroids was designed to identify active combinations of targeted small molecules and KRAS pathway inhibitors. Complex spheroids include a stromal component modeled by human endothelial cells (HUVEC) and fibroblasts modeled by human mesenchymal stem cells (MSCs). The concentration ranges selected for each drug and investigational agent were based upon clinically achievable concentrations if the clinical Cmax of the agent was known.
Compounds. The drugs and investigational agents: BI-3406 (NSC825286), BAY-293 (NSC824723), batoprotafib (TNO155; NSC825523), sotorasib (AMG 510; NSC818433), MRTX1257 (NSC819558), elimusertib (BAY 1895344; NSC800525), molibresib (GSK525762; NSC774829), temuterkib (LY3214996; NSC803410), venetoclax (NSC766270), alisertib (NSC759677), olaparib (NSC753686), talazoparib (NSC767125), erdafitinib (NSC781556), ipatasertib (NSC767898), cabozantinib (NSC761068), nintedanib (NSC756659), abemaciclib (NSC768073), docetaxel (NSC628503), trametinib (NSC758246), and sapanisertib (NSC764658) were obtained from the National Cancer Institute (NCI) Developmental Therapeutics Program Chemical Repository. The FDA-approved anticancer drug set is available from the Developmental Therapeutics Program. […] The stock solutions were prepared in dimethyl sulfoxide (DMSO, Sigma-Aldrich, St. Louis, MO, cat. D2650) at 800-fold the tested concentration and stored at -70 degrees C prior to their use. All drugs and investigational agents were tested over a range starting from a high concentration at or near the clinical Cmax and decreasing in half-log increments. If the clinical Cmax for an agent had not been determined, the highest concentration tested was 10 microM.
Cell Culture. All cells were maintained in an incubator at 37 degrees C and 5% CO2 with 95% humidity. The PDC lines were cultured according to standard operating procedures established by the NCI PDMR (https://pdmr.cancer.gov/sops/default.htm). Briefly, all PDCs were thawed and cultured in Matrigel-coated flasks prepared with a working solution of 1X Ham's F-12 nutrient mix, without supplementation (Invitrogen, Waltham, MA, cat. 11765054), 100 U/mL penicillin-streptomycin (Invitrogen, cat. 15140122), and 2.5% Matrigel (Corning Inc., Corning, NY, cat. 354248) for the first three passages. All PDCs were cultured in complete DMEM/F-12 media containing advanced DMEM/F-12 (Invitrogen, cat. 12634028), 4.9% defined fetal bovine serum, heat inactivated (HyClone Laboratories Inc., Logan, UT, cat. SH30070.03HI), 389 ng/mL hydrocortisone (Sigma-Aldrich, cat. H4001), 9.7 ng/mL human EGF recombinant protein (Invitrogen, cat. PHG0313), 23.4 microg/mL adenine (Sigma-Aldrich, cat. A2786), 97.3 U/mL penicillin-streptomycin (Invitrogen, cat. 15140122), 1.9 mM L-glutamine (Invitrogen, cat. 25030081), and 9.7 microM Y-27632 dihydrochloride (Tocris Bioscience, Bristol, United Kingdom, cat. 1254). The PDCs were cultured in complete DMEM/F12 media without 9.7 microM Y-27632 dihydrochloride for at least two passages prior to the screen. The established cell line HOP-62 was cultured in RPMI 1640 medium, HEPES (Invitrogen, cat. 22400105) with 10% defined fetal bovine serum (HyClone Laboratories Inc., cat. SH30070.03) and 2 mM L-glutamine (Invitrogen, cat. 25030081). The pooled donor HUVEC were cultured in endothelial cell growth medium 2 (PromoCell, Heidelberg, Germany, cat. C-22011) and the hMSC were cultured in mesenchymal stem cell growth medium 2 (PromoCell, cat. C-28009). For all experiments, HUVEC and hMSC were used at passages </=5, while the malignant cell lines were used at passages </=15. […]

[1] = curve of first compound, second compound 0.1 µM
[2] = curve of first compound, second compound 0.316 µM
[3] = curve of first compound, second compound 1 µM
[4] = curve of first compound, second compound 3.16 µM
[5] = curve of first compound, second compound 10 µM
[6] = second compound 0.1 µM, first compound 0.01 µM
[7] = second compound 0.1 µM, first compound 0.0316 µM
[8] = second compound 0.1 µM, first compound 0.1 µM
[9] = second compound 0.1 µM, first compound 0.316 µM
[10] = second compound 0.1 µM, first compound 1 µM
[11] = second compound 0.1 µM, first compound 3.16 µM
[12] = second compound 0.316 µM, first compound 0.01 µM
[13] = second compound 0.316 µM, first compound 0.0316 µM
[14] = second compound 0.316 µM, first compound 0.1 µM
[15] = second compound 0.316 µM, first compound 0.316 µM
[16] = second compound 0.316 µM, first compound 1 µM
[17] = second compound 0.316 µM, first compound 3.16 µM
[18] = second compound 1 µM, first compound 0.01 µM
[19] = second compound 1 µM, first compound 0.0316 µM
[20] = second compound 1 µM, first compound 0.1 µM
[21] = second compound 1 µM, first compound 0.316 µM
[22] = second compound 1 µM, first compound 1 µM
[23] = second compound 1 µM, first compound 3.16 µM
[24] = second compound 3.16 µM, first compound 0.01 µM
[25] = second compound 3.16 µM, first compound 0.0316 µM
[26] = second compound 3.16 µM, first compound 0.1 µM
[27] = second compound 3.16 µM, first compound 0.316 µM
[28] = second compound 3.16 µM, first compound 1 µM
[29] = second compound 3.16 µM, first compound 3.16 µM
[30] = second compound 10 µM, first compound 0.01 µM
[31] = second compound 10 µM, first compound 0.0316 µM
[32] = second compound 10 µM, first compound 0.1 µM
[33] = second compound 10 µM, first compound 0.316 µM
[34] = second compound 10 µM, first compound 1 µM
[35] = second compound 10 µM, first compound 3.16 µM
[36] = second compound 0.1 µM, first compound 0.00316 µM
[37] = second compound 0.316 µM, first compound 0.00316 µM
[38] = second compound 1 µM, first compound 0.00316 µM
[39] = second compound 3.16 µM, first compound 0.00316 µM
[40] = second compound 10 µM, first compound 0.00316 µM
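Note: viability read after seven days of drug exposure.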

SMILES | IC50 [1] [nM] | IC50 [2] [nM] | IC50 [3] [nM] | IC50 [4] [nM] | IC50 [5] [nM] | viability, T/C [6] [%] | viability, T/C [7] [%] | viability, T/C [8] [%] | viability, T/C [9] [%] | viability, T/C [10] [%] | viability, T/C [12] [%] | viability, T/C [13] [%] | viability, T/C [14] [%] | viability, T/C [15] [%] | viability, T/C [16] [%] | viability, T/C [18] [%] | viability, T/C [19] [%] | viability, T/C [20] [%] | viability, T/C [21] [%] | viability, T/C [22] [%] | other results
CC(=O)OC12COC1CC(O)C1(C)C(=O)C(O)C3=C(C)C(OC(=O)C(O)C(NC(=O)OC(C)(C)C)c4ccccc4)CC(O)(C(OC(=O)c4ccccc4)C21)C3(C)C (configuration not stated) + COc1cc2nc(C)nc(NC(C)c3cc(N)cc(C(F)(F)F)c3)c2cc1OC1CCOC1 | < 10 | < 10 | < 10 | < 10 | < 10 | 25 | 13.7 | 14.5 | 12.4 | 18.4 | 17.5 | 14.1 | 13.6 | 13.2 | 15.3 | 18.6 | 12.9 | 14 | 14.1 | 19.4 | viability, T/C [11]: 19%; viability, T/C [17]: 20.2%; viability, T/C [23]: 26.4%; viability, T/C [24]: 14%; viability, T/C [25]: 14.3%; viability, T/C [26]: 12.1%; viability, T/C [27]: 12.5%; viability, T/C [28]: 17.1%; viability, T/C [29]: 19.6%; viability, T/C [30]: 18.1%; viability, T/C [31]: 13.4%; viability, T/C [32]: 14.3%; viability, T/C [33]: 14.1%; viability, T/C [34]: 14.3%; viability, T/C [35]: 18.9%
CCN1CCN(Cc2ccc(Nc3ncc(F)c(-c4cc(F)c5nc(C)n(C(C)C)c5c4)n3)nc2)CC1 + COc1cc2nc(C)nc(NC(C)c3cc(N)cc(C(F)(F)F)c3)c2cc1OC1CCOC1 | > 1000 | > 1000 | > 1000 | > 1000 | 464 | 84.9 | 79.2 | 79.9 | 85.4 | 76.7 | 89.9 | 79.4 | 71.7 | 85.4 | 76 | 80.2 | 87.5 | 77.4 | 87.7 | 80.8 | viability, T/C [36]: 88.2%; viability, T/C [37]: 92%; viability, T/C [38]: 93.1%; viability, T/C [39]: 90.5%; viability, T/C [24]: 101%; viability, T/C [25]: 89.3%; viability, T/C [26]: 76.7%; viability, T/C [27]: 83.2%; viability, T/C [28]: 73%; viability, T/C [40]: 82.9%; viability, T/C [30]: 76%; viability, T/C [31]: 74.4%; viability, T/C [32]: 91%; viability, T/C [33]: 74.7%; viability, T/C [34]: 0.5%
CCN1CCN(Cc2ccc(Nc3ncc(F)c(-c4cc(F)c5nc(C)n(C(C)C)c5c4)n3)nc2)CC1 + C=CC(=O)N1CCN(c2nc(=O)n(-c3c(C)ccnc3C(C)C)c3nc(-c4c(O)cccc4F)c(F)cc23)C(C)C1 | > 1000 | > 1000 | > 1000 | > 1000 | > 1000 | 100 | 110 | 100 | 122 | 97.2 | 108 | 91.1 | 101 | 117 | 109 | 108 | 94.5 | 95.5 | 113 | 96.7 | viability, T/C [36]: 113%; viability, T/C [37]: 114%; viability, T/C [38]: 112%; viability, T/C [39]: 89.2%; viability, T/C [24]: 99.4%; viability, T/C [25]: 91.8%; viability, T/C [26]: 80.5%; viability, T/C [27]: 88.4%; viability, T/C [28]: 88.8%; viability, T/C [40]: 81%; viability, T/C [30]: 88.3%; viability, T/C [31]: 89.4%; viability, T/C [32]: 74.6%; viability, T/C [33]: 66.7%; viability, T/C [34]: 50.7%
COc1cc(Nc2ncc3c(n2)-c2ccc(Cl)cc2C(c2c(F)cccc2OC)=NC3)ccc1C(=O)O | – | – | – | – | – | – | – | – | – | – | – | – | – | – | – | – | – | – | – | – | viability, T/C (compound 0.0316 µM): 50.2% [middle of 5 runs]; viability, T/C (compound 0.1 µM): 39.8% [middle of 5 runs]; viability, T/C (compound 0.316 µM): 45.3% [middle of 5 runs]; viability, T/C (compound 1 µM): 47.9% [middle of 5 runs]; viability, T/C (compound 3.16 µM): 46.5% [middle of 5 runs]; viability, T/C (compound 10 µM): 41.2% [middle of 5 runs]; IC50 (curve of compound): < 31.6 nM
CC1COCCN1c1cc(-c2ccnn2C)c2ccnc(-c3ccn[nH]3)c2n1 (configuration not stated) + COc1cc2nc(C)nc(NC(C)c3cc(N)cc(C(F)(F)F)c3)c2cc1OC1CCOC1 | 21.4 | 21.7 | 21.4 | 23 | < 10 | 85.3 | 31.8 | 9.64 | 12.1 | 16.3 | 85 | 33 | 8.19 | 10.6 | 15.9 | 93.4 | 27.7 | 10.1 | 11.7 | 15.6 | viability, T/C [11]: 20.9%; viability, T/C [17]: 22.8%; viability, T/C [23]: 21.9%; viability, T/C [24]: 97.4%; viability, T/C [25]: 31.6%; viability, T/C [26]: 7.75%; viability, T/C [27]: 10.1%; viability, T/C [28]: 16.6%; viability, T/C [29]: 23.1%; viability, T/C [30]: 39.6%; viability, T/C [31]: 9.76%; viability, T/C [32]: 4.43%; viability, T/C [33]: 7.6%; viability, T/C [34]: 16%; viability, T/C [35]: 12.9%
CC1(C)CCC(CN2CCN(c3ccc(C(=O)NS(=O)(=O)c4ccc(NCC5CCOCC5)c([N+](=O)[O-])c4)c(Oc4cnc5[nH]ccc5c4)c3)CC2)=C(c2ccc(Cl)cc2)C1 | – | – | – | – | – | – | – | – | – | – | – | – | – | – | – | – | – | – | – | – | viability, T/C (compound 0.0316 µM): 99.7% [middle of 5 runs]; viability, T/C (compound 0.1 µM): 104% [middle of 5 runs]; viability, T/C (compound 0.316 µM): 105% [middle of 5 runs]; viability, T/C (compound 1 µM): 111% [middle of 5 runs]; IC50 (curve of compound): 6.08 µM [middle of 5 runs]
